Data taken from paper PMC6855144, “Examination of the Glycine Betaine-Dependent Methylotrophic Methanogenesis Pathway: Insights Into Anaerobic Quaternary Amine Methylotrophy” (Frontiers in Microbiology, 2019).

Biological target: T1, MV8460 (MtgB) (Methanolobus vulcani, UniProt A0A7Z8KPC2)
T1 construct: gene FKV42_08460
T1 sequence (A0A7Z8KPC2 1-475): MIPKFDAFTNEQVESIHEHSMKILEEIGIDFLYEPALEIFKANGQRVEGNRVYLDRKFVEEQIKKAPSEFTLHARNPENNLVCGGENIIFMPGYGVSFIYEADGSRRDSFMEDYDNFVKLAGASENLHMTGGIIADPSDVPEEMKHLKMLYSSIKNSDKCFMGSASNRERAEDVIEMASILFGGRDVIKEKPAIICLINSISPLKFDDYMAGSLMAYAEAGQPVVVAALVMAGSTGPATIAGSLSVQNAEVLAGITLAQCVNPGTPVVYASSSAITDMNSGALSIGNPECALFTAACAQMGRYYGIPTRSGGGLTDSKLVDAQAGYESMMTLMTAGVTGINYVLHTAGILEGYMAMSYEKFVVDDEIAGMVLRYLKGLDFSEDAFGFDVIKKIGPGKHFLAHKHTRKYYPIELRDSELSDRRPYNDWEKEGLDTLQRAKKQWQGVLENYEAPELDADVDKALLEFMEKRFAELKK
Assay: UV-vis, methylation of free cob(I)alamin at […] nm
Assay type: biochemical
Conditions: methyl donor 50 mM; co-substrate cob(I)alamin; 37 °C; anoxic

C[N+](C)(C)CC(=O)[O-] [GB, glycine betaine]
UV-vis, methylation of free cob(I)alamin at 540 nm: We detected methylation of free cob(I)alamin by MV8460 using GB as the methyl donor
